Laboratory results from patent publication US20040157802A1, “Anti-microbial agents derived from methionine sulfoximine analogues” (priority 2002, published 2004).
Several values for one entry are separate records, joined by “and”; a condition that tells them apart may be missing. Equal values may be shown once.

What was measured:
[1] = BSO at doses that fully inhibit glutathione synthesis, guinea pigs; cited from earlier work
[2] = system: M. tuberculosis Erdman; assay: M. tuberculosis growth in broth culture (CFU); format: cell-based; details: for Inhibition of growth of M. tuberculosis in broth culture: 10, 100 or 1000 μM, 6 weeks; for Inhibition of growth of M. tuberculosis in broth culture / Inhibition of M. tuberculosis in broth culture relative to MSO: Example 7; for Efficacy against M. tuberculosis growth in broth culture in comparison with MSO: 10, 100, 1000 μM, Example 6, FIG. 4; for Inhibition of M. tuberculosis in broth culture relative to MSO: at each of 10, 100, 1000 μM
[3] = system: M. tuberculosis Erdman strain; details: in vivo
[4] = cited from earlier work; for Estimtated Dose of L Isomer that Induces Convulsions in Mice (Relative to MSO): Table 1; for Estimtated Dose of L Isomer that Induces Convulsions in Mice (Relative to MSO) / Estimated Dose of L Isomer that Induces Convulsions in Mice (Relative to MSO): relative to MSO = 1; for Estimated Dose of L Isomer that Induces Convulsions in Mice (Relative to MSO): Table 3; for Dose that induces convulsions in mice relative to the dose of MSO: α-Et-MSO: convulsions in a minority of mice vs MSO in 100% of mice
[5] = target: mammalian glutamine synthetase (MGS) (Homo sapiens, UniProt P15104); details: cited from earlier work
Sequence of mammalian glutamine synthetase (MGS) (P15104 2-373 limits assumed): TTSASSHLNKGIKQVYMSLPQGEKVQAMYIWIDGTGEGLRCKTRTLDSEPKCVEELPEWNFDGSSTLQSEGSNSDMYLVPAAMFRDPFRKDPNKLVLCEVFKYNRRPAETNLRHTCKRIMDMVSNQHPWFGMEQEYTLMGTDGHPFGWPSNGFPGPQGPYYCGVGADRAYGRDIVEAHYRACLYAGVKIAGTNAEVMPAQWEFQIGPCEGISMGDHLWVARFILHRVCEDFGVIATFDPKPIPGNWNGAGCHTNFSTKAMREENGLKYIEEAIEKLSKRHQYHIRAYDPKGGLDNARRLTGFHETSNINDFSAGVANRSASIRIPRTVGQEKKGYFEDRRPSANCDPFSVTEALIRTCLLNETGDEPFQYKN

[6] = target: T1, mammalian gamma-glutamylcysteine synthetase (γ-GCS) (Homo sapiens, UniProt P48506); details: cited from earlier work
T1 sequence (P48506 1-637): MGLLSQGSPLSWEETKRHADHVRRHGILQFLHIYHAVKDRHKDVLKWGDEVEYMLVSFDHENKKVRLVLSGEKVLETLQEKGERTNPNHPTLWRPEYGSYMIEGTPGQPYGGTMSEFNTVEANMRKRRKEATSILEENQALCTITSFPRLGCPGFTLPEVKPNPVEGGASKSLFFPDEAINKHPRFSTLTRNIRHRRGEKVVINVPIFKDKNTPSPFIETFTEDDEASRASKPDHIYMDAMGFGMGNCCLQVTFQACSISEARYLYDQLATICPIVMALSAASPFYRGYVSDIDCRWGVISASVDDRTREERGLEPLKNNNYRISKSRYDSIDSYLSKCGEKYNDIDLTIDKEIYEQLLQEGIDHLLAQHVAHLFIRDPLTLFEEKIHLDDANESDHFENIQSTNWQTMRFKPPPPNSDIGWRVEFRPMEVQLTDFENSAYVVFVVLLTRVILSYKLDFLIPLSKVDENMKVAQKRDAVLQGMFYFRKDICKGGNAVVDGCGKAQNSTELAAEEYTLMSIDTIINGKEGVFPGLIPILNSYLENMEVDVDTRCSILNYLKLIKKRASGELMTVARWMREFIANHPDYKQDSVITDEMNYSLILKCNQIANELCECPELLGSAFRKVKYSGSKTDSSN

[7] = system: M. tuberculosis Erdman in human macrophages (THP-1 cells); details: 20, 200, 2000 μM, FIG. 5
[8] = cited from earlier work

Question: Which results are given for CCCCS(=N)(=O)CCC(N)C(=O)O [BSO, D, L-Buthionine-SR-Sulfoximine, reference compound]?
Answer: Animals killed [1]: 100%; Inhibition of growth of M. tuberculosis in broth culture [2]: did not

Question: What does the source list for CS(=N)(=O)CC[C@H](N)C(=O)O (stereo partly drawn) [MSO, L-methionine-SR-sulfoximine]?
Answer: Fewer CFU of M. tuberculosis in organs than control animals [3]: approximately 1 log unit; Protection from weight loss, drug administered alone [3]: protected animals from weight loss; Reduction of CFU of M. tuberculosis compared with control animals [3]: ~0.7 logs; Weight loss compared with untreated control animals [3]: protected from a precipitous decline in weight loss in the final week; Reduction of CFU in the lungs and spleen compared with untreated controls ([3]; ip): 2.5 logs; Estimtated Dose of L Isomer that Induces Convulsions in Mice (Relative to MSO) [4]: 1; Estimated Dose of L Isomer that Induces Convulsions in Mice (Relative to MSO) [4]: 1; Inhibition of mammalian GS [5]: inhibit mammalian GS; Inhibition of γ-GCS [6]: inhibit γ-GCS; Inhibition of growth of M. tuberculosis in broth culture [2]: inhibited M. tuberculosis; MTD in the presence of ascorbate relative to MTD in the absence of ascorbate (guinea pig, in vivo): 4 fold; Maximum tolerated dose for guinea pigs infected with M. tuberculosis (guinea pig, in vivo): 1.5 mg/kg/day; Tolerability (guinea pig, in vivo): early weight loss

Question: With O=C1O[C@H]([C@@H](O)CO)C(O)=C1O [ascorbate] as the molecule, how does the “Well tolerated total dose of ascorbate” value (i.p., guinea pigs, 9 mmoles kg^−1 day^−1 not well tolerated) read?
Answer: The value was 3 mmol/kg/day.

Question: Which “Inhibition of M. tuberculosis growth in human macrophages” value [7] does the source give for CCC(N)(CCS(C)(=N)=O)C(=O)O (racemic) [α-Et-MSO, α-ethyl-DL-methionine-SR-sulfoximine] here?
Answer: The value was “readily inhibited”.

Question: What about the “Estimtated Dose of L Isomer that Induces Convulsions in Mice (Relative to MSO)” value [4] of the same molecule?
Answer: Its value is >16.

Question: What about the “Estimated Dose of L Isomer that Induces Convulsions in Mice (Relative to MSO)” value [4] of the same molecule?
Answer: Its value is “≧16”.

Question: What about the “Dose that induces convulsions in mice relative to the dose of MSO” value [4] of the same molecule?
Answer: Its value is 16 fold.

Question: What about the “Inhibition of mammalian GS” value [5] of the same molecule?
Answer: Its value is “inhibit mammalian GS”.

Question: And the “Inhibition of γ-GCS” value [6]?
Answer: Its value is “specific to GS”.

Question: What about the Metabolism [8] of the same molecule?
Answer: Its Metabolism is “resistant to metabolism”.

Question: And the “Efficacy against M. tuberculosis growth in broth culture in comparison with MSO” value [2]?
Answer: Its value is “as inhibitory to M. tuberculosis growth as MSO”.

Question: What about the “Inhibition of growth of M. tuberculosis in broth culture” value [2] of the same molecule?
Answer: The value was “inhibited M. tuberculosis”.

Question: What about the “Inhibition of M. tuberculosis in broth culture relative to MSO” value [2] of the same molecule?
Answer: Its value is “as inhibitory or slightly more inhibitory than MSO”.

Question: Which “Protection from weight loss, drug administered alone” value [3] does the source give for NNC(=O)c1ccncc1 [INH, isoniazid] here?
Answer: The value was “protected animals from weight loss”.

Question: And the “Reduction of CFU in lung and spleen below the level obtained with MSO” value [3]?
Answer: The value was ~1.5 logs and ~2.5 logs.

Question: For CC(N)(CCS(C)(=N)=O)C(=O)O (racemic) [α-Me-MSO, α-methyl-DL-methionine-SR-sulfoximine], which “Inhibition of M. tuberculosis growth in human macrophages” value [7] is on record?
Answer: The value was “readily inhibited”.

Question: And the “Estimtated Dose of L Isomer that Induces Convulsions in Mice (Relative to MSO)” value [4]?
Answer: The value was 8.

Question: What about the “Estimated Dose of L Isomer that Induces Convulsions in Mice (Relative to MSO)” value [4] of the same molecule?
Answer: Its value is 8.

Question: What about the “Dose that induces convulsions in mice relative to the dose of MSO” value [4] of the same molecule?
Answer: The value was ~8 fold.

Question: And the “Inhibition of mammalian GS” value [5]?
Answer: The value was “inhibit mammalian GS”.

Question: What about the “Inhibition of γ-GCS” value [6] of the same molecule?
Answer: The value was “inhibit γ-GCS”.

Question: And the Metabolism [8]?
Answer: Its Metabolism is “resistant to metabolism”.

Question: And the “Efficacy against M. tuberculosis growth in broth culture in comparison with MSO” value [2]?
Answer: The value was “as inhibitory to M. tuberculosis growth as MSO”.

Question: And the “Inhibition of growth of M. tuberculosis in broth culture” value [2]?
Answer: Its value is “inhibited M. tuberculosis”.

Question: And the “Inhibition of M. tuberculosis in broth culture relative to MSO” value [2]?
Answer: The value was “slightly less inhibitory than MSO”.
